Active and inactive are the calls of the source. No cut-off for these calls is given here.
Legend:
[1] = Toxicity weighted activity index, ratio of GI50 for cytotoxicity against CHOK1 cells stably expressing human PDL1 co-cultured with human Jurkat T cell expressing human PD1 to EC50 for inhibition of PD1/PDL1 interaction in human Jurkat cells co-cultured with human U2OS cells expressing PDL1; format: cell-based; conditions: chinese hamster; read-out: Ratio GI50/EC50
[2] = Toxicity weighted activity index, ratio of GI50 for Cytotoxicity against human Jurkat T cell expressing human PD1 co-cultured with CHOK1 cells stably expressing human PDL1 to EC50 for inhibition of PD1/PDL1 interaction in human Jurkat cells co-cultured with human U2OS cells expressing PDL1; format: cell-based; conditions: read-out: Ratio GI50/EC50
[3] = Toxicity weighted activity index, ratio of GI50 for cytotoxicity against CHOK1 cells stably expressing human PDL1 co-cultured with human Jurkat T cell expressing human PD1 to EC50 for inhibition of human PD1 stably expressed in human Jurkat T cells co-expressing NFAT-induced luciferase/human PDL1 stably expressed in CHOK1 cells co-expressing aAPC protein-protein interaction; format: cell-based; conditions: chinese hamster; read-out: Ratio GI50/EC50
[4] = Cytotoxicity against human Jurkat T cell expressing human PD1 co-cultured with CHOK1 cells stably expressing human PDL1 measured after 24 hrs by XTT assay; format: cell-based; conditions: read-out: MNCC
[5] = Cytotoxicity against CHOK1 cells stably expressing human PDL1 co-cultured with human Jurkat T cell expressing human PD1 measured after 24 hrs by XTT assay; format: cell-based, Cricetulus griseus, CHO-K1; conditions: chinese hamster; read-out: MNCC
[6] = target: T1, Programmed cell death protein 1/Programmed cell death 1 ligand 1 (Homo sapiens, UniProt Q9NZQ7); assay: Inhibition of human PD1 stably expressed in human Jurkat T cells co-expressing NFAT-induced luciferase/human PDL1 stably expressed in CHOK1 cells co-expressing aAPC protein-protein interaction assessed as increase in NFAT signaling measured after 6 hrs by bio-glo luciferase reporter gene assay; format: cell-based
[7] = Cytotoxicity against human Jurkat T cell expressing human PD1 co-cultured with CHOK1 cells stably expressing human PDL1 assessed as growth inhibition measured after 24 hrs by XTT assay; format: cell-based
[8] = Toxicity weighted activity index, ratio of GI50 for Cytotoxicity against human Jurkat T cell expressing human PD1 co-cultured with CHOK1 cells stably expressing human PDL1 to EC50 for inhibition of human PD1 stably expressed in human Jurkat T cells co-expressing NFAT-induced luciferase/human PDL1 stably expressed in CHOK1 cells co-expressing aAPC protein-protein interaction; format: cell-based; conditions: read-out: Ratio GI50/EC50
[9] = Cytotoxicity against CHOK1 cells stably expressing human PDL1 co-cultured with human Jurkat T cell expressing human PD1 assessed as growth inhibition measured after 24 hrs by XTT assay; format: cell-based, Cricetulus griseus, CHO-K1; conditions: chinese hamster
[10] = target: T1, Programmed cell death protein 1/Programmed cell death 1 ligand 1; assay: (§1) Inhibition of PD1/PDL1 interaction in human Jurkat cells co-cultured with human U2OS cells expressing PDL1 assessed as reduction in SHP1 recruitment preincubated with U2OS cells for 60 mins followed by Jurkat cell addition and measured after 2 hrs by Pathhunter chemiluminescent assay; format: cell-based
[11] = target: Programmed cell death 1 ligand 1 (Homo sapiens) (UniProt Q9NZQ7); assay: Binding affinity to 15N-labelled human PDL1 assessed as induction of oligomerization by 1H-NMR spectra analysis
[12] = target: T1, Programmed cell death protein 1/Programmed cell death 1 ligand 1; assay: Inhibition of human Fc-tagged PD1 N-terminal domain (Leu25 to Gln167 residues) expressed in HEK293 cells/human His-tagged PDL1 (Phe19 to Arg238 residues) expressed in HEK293 cells protein-protein interaction after 1 hr by APC-labeled anti-His antibody/Eu-labeled anti-human IgG based HTRF assay; format: cell-based
[13] = target: Programmed cell death 1 ligand 1 (Homo sapiens) (UniProt Q9NZQ7); assay: Binding affinity to 15N-labelled human PDL1 assessed as induction of protein oligomerization by 1H-15N HMQC spectra analysis
[14] = target: Programmed cell death protein 1/Programmed cell death 1 ligand 1 (Homo sapiens) (UniProt Q15116+Q9NZQ7); assay: as §1; format: cell-based

Chain of Programmed cell death 1 ligand 1 (Homo sapiens) (Q9NZQ7 whole entry, the tested form may be a part): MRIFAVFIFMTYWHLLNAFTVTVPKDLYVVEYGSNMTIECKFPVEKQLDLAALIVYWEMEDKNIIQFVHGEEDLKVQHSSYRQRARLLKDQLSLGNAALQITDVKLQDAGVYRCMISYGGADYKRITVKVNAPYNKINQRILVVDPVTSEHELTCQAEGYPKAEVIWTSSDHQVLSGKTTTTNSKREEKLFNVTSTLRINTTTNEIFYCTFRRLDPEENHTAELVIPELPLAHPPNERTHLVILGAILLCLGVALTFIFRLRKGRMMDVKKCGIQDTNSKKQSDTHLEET
T1 sequence (Q15116 whole entry): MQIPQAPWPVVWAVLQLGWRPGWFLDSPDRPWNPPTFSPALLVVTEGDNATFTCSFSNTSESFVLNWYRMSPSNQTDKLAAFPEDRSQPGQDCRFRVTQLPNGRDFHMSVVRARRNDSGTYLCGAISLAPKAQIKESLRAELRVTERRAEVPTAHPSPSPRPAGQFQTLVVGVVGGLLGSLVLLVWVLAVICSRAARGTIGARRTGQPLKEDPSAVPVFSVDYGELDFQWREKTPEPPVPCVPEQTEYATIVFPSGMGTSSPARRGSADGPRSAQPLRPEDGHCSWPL
T1 sequence (Q9NZQ7 whole entry): as the sequence (Q9NZQ7 whole entry, the tested form may be a part) above

Row | SMILES | MNTC at 24 h [4] [nM] | MNTC at 24 h [5] [nM] | GI50 at 24 h [7] [µM] | GI50 at 24 h [9] [µM] | Activity [11] | IC50 [12] [nM] | Activity [13] | other results
1 | CC(=O)NCCNCc1cc(C)c(OCc2cccc(-c3ccccc3)c2C)cc1OCc1cncc(C#N)c1 | 2560 | 2560 | 8.1 | 8.1 | Active | 2.5 | Active | selectivity ratio [1]: 37; selectivity ratio [2]: 37; selectivity ratio [3]: 2.7; EC50 [6]: 3 µM; selectivity ratio [8]: 2.7; EC50 [10]: 219 nM
2 | COc1nc(OCc2cccc(-c3ccccc3)c2C)ccc1CNCCNC(C)=O | 2560 | 2560 | 4.5 | 4.5 |  |  |  | 
3 | CC(=O)NCCNCc1ccc(OCc2ccc3cc(COc4ccc(CNCCNC(C)=O)c(OCc5cncc(C#N)c5)c4)ccc3c2)cc1OCc1cncc(C#N)c1 |  |  |  |  |  | 1170 |  | 
4 | CCNCc1cc(C)c(OCc2cccc(-c3cccc(COc4cc(OCc5cncc(C#N)c5)c(CNCC)cc4C)c3C)c2C)cc1OCc1cncc(C#N)c1 |  |  |  |  |  | 3.8 |  | 
5 | COc1nc(OCc2cccc(-c3cccc(COc4ccc(CNCCNC(C)=O)c(OC)n4)c3C)c2C)ccc1CNCCNC(C)=O | 2560 | 2560 | 3.1 | 3.1 | Active | 25 | Active | selectivity ratio [1]: 9.3; selectivity ratio [2]: 9.3; selectivity ratio [3]: 0.7; EC50 [6]: 4.21 µM; selectivity ratio [8]: 0.7; inhibition [14]: Dose-dependent effect; EC50 [10]: 334 nM
6 | CC(=O)NCCNCc1ccc(OCc2cccc(COc3ccc(CNCCNC(C)=O)c(OCc4cncc(C#N)c4)c3)c2)cc1OCc1cncc(C#N)c1 |  |  |  |  |  | > 10000 |  | 
7 | CC(=O)NCCNCc1cc(C)c(OCc2cccc(-c3cccc(COc4cc(OCc5cncc(C#N)c5)c(CNCCNC(C)=O)cc4C)c3C)c2C)cc1OCc1cncc(C#N)c1 | 2560 | 2560 | 11.8 | 11.8 | Active |  | Active | inhibition [14]: Dose-dependent effect
8 | CC(=O)NCCNCc1ccc(OCc2ccc(COc3ccc(CNCCNC(C)=O)c(OCc4cncc(C#N)c4)c3)c3ccccc23)cc1OCc1cncc(C#N)c1 |  |  |  |  |  | 462 |  | 
9 | CC(=O)NCCNCc1ccc(OCc2ccc(COc3ccc(CNCCNC(C)=O)c(OCc4cncc(C#N)c4)c3)cc2)cc1OCc1cncc(C#N)c1 |  |  |  |  |  | 8240 |  | 
10 | CCNCc1cc(C)c(OCc2cccc(-c3ccccc3)c2C)cc1OCc1cncc(C#N)c1 |  |  |  |  |  | 2.2 |  | 

— ChEMBL document CHEMBL4311949, “Design, Synthesis, Evaluation, and Structural Studies of C2-Symmetric Small Molecule Inhibitors of Programmed Cell Death-1/Programmed Death-Ligand 1 Protein-Protein Interaction” (J Med Chem, 2019)
